Test results published in ChEMBL document CHEMBL1201862, “PubChem BioAssay data set” (2004).
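Following 48 hours of exposure in 96-well plates, responses at five concentrations were used to interpolate endpoints linearly. GI50: concentration for 50% inhibition of growth.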 Activity calls are given as the source filed them. No stated cut-off is given here; in the data, active = GI50 up to about 1.1 µM and inactive = higher.

Assays:
Assay in all cases: NCI-60 cell line screen, 48 h
786-0 = system: 786-0
BT-549 = system: BT-549
DU-145 = system: DU-145
EKVX = system: EKVX
HCC 2998 = system: HCC 2998
K562 = system: K562
M14 = system: M14
MOLT-4 = system: MOLT-4
Malme-3M = system: Malme-3M
NCI-H23 = system: NCI-H23
OVCAR-3 = system: OVCAR-3
OVCAR-5 = system: OVCAR-5
OVCAR-8 = system: OVCAR-8
PC-3 = system: PC-3
SK-MEL-2 = system: SK-MEL-2
TK-10 = system: TK-10
U-251 = system: U-251
MDA-MB-435 = system: MDA-MB-435
SN12C = system: SN12C

Measured: GI50

CC(C)=Nn1cnc(C(=N)C#N)c1N
inactive: 786-0 > 100 µM | BT-549 > 100 µM | DU-145 > 100 µM | EKVX > 100 µM | HCC 2998 > 100 µM | K562 > 100 µM | M14 > 100 µM | MOLT-4 > 100 µM | Malme-3M > 100 µM | NCI-H23 > 100 µM | OVCAR-3 > 100 µM | OVCAR-5 > 100 µM | OVCAR-8 > 100 µM | PC-3 > 100 µM | SK-MEL-2 > 100 µM | TK-10 > 100 µM | U-251 > 100 µM

CC(=O)c1sc(Nc2ccc(Cl)c(Cl)c2)nc1C
inactive: 786-0 > 100 µM | BT-549 > 100 µM | DU-145 > 100 µM | EKVX 5.64 µM | HCC 2998 > 100 µM | MDA-MB-435 > 100 µM | MOLT-4 14.8 µM | Malme-3M > 100 µM | NCI-H23 > 100 µM | OVCAR-3 29.8 µM | OVCAR-5 > 100 µM | OVCAR-8 > 100 µM | SN12C > 100 µM | TK-10 > 100 µM | U-251 > 100 µM

O=S(=O)(O)c1ccc2c(/N=N/c3c(O)ccc4ccccc34)cccc2c1
inactive: 786-0 > 100 µM | BT-549 > 100 µM | DU-145 > 100 µM | EKVX 61.5 µM | K562 34.3 µM | M14 > 100 µM | MDA-MB-435 > 100 µM | Malme-3M > 100 µM | NCI-H23 > 100 µM | OVCAR-3 88.9 µM | OVCAR-5 > 100 µM | OVCAR-8 > 100 µM | PC-3 > 100 µM | SK-MEL-2 > 100 µM | SN12C > 100 µM | TK-10 > 100 µM | U-251 > 100 µM

CCCCCCCCCCCCCCCC(=O)ON1C(=S)NC(C)(c2ccccc2)C1=S (stereo not drawn)
inactive: 786-0 60 µM | BT-549 > 100 µM | DU-145 > 100 µM | EKVX > 100 µM | HCC 2998 38.5 µM | K562 38.2 µM | M14 30.3 µM | MOLT-4 33.5 µM | Malme-3M > 100 µM | NCI-H23 > 100 µM | OVCAR-3 > 100 µM | OVCAR-5 > 100 µM | OVCAR-8 > 100 µM | PC-3 62.2 µM | SK-MEL-2 > 100 µM | SN12C > 100 µM | TK-10 > 100 µM

CCCCOC(=O)C(=O)C(CCC(=O)c1ccc(C)cc1)C(=O)C=C(C)C (stereo not drawn)
inactive: 786-0 > 100 µM | BT-549 > 100 µM | EKVX > 100 µM | HCC 2998 > 100 µM | K562 > 100 µM | M14 > 100 µM | MDA-MB-435 > 100 µM | MOLT-4 > 100 µM | Malme-3M > 100 µM | NCI-H23 > 100 µM | OVCAR-3 > 100 µM | OVCAR-5 > 100 µM | OVCAR-8 > 100 µM | PC-3 > 100 µM | SK-MEL-2 > 100 µM | SN12C > 100 µM | TK-10 > 100 µM | U-251 > 100 µM

CNC(=S)NN=C1NCCCN1
inactive: 786-0 > 100 µM | BT-549 > 100 µM | EKVX > 100 µM | HCC 2998 > 100 µM | K562 > 100 µM | M14 > 100 µM | MDA-MB-435 > 100 µM | MOLT-4 > 100 µM | Malme-3M > 100 µM | NCI-H23 > 100 µM | OVCAR-3 > 100 µM | OVCAR-5 > 100 µM | OVCAR-8 > 100 µM | PC-3 > 100 µM | SK-MEL-2 > 100 µM | TK-10 > 100 µM | U-251 > 100 µM

COc1cc(-c2cc(=O)c3c(OC)c(OC)c(OC)c(OC)c3o2)cc(OC)c1OC [HEPATAMETHOXYFLAVONE]
inactive: 786-0 58.9 µM | BT-549 48.6 µM | DU-145 45.5 µM | EKVX 48.4 µM | HCC 2998 30.3 µM | K562 63.4 µM | M14 45.7 µM | MDA-MB-435 29 µM | MOLT-4 24.9 µM | Malme-3M 39.6 µM | NCI-H23 41.8 µM | OVCAR-3 25.5 µM | OVCAR-5 > 100 µM | OVCAR-8 24.5 µM | SK-MEL-2 27.9 µM | SN12C 43.6 µM | TK-10 44.4 µM | U-251 40.1 µM

CCOC(=O)C(NC(=O)CC)(Nc1ccc(F)cc1F)C(F)(F)F (stereo not drawn)
inactive: 786-0 > 100 µM | BT-549 > 100 µM | EKVX > 100 µM | HCC 2998 > 100 µM | K562 60.4 µM | M14 > 100 µM | MDA-MB-435 40.7 µM | MOLT-4 > 100 µM | NCI-H23 > 100 µM | OVCAR-5 > 100 µM | OVCAR-8 > 100 µM | PC-3 > 100 µM | SK-MEL-2 > 100 µM | SN12C > 100 µM | TK-10 > 100 µM | U-251 > 100 µM

Cc1cc(=O)oc2c(CNC(Cc3ccccc3)C(=O)O)c(O)ccc12 (stereo not drawn)
inactive: 786-0 > 100 µM | DU-145 > 100 µM | EKVX > 100 µM | HCC 2998 > 100 µM | K562 > 100 µM | M14 > 100 µM | MDA-MB-435 > 100 µM | MOLT-4 > 100 µM | Malme-3M 61.5 µM | NCI-H23 > 100 µM | OVCAR-3 > 100 µM | OVCAR-5 > 100 µM | OVCAR-8 > 100 µM | PC-3 > 100 µM | SK-MEL-2 > 100 µM | SN12C > 100 µM | TK-10 > 100 µM | U-251 > 100 µM

COc1cccc(NC(=O)c2c(N)n[nH]c2SC)c1
inactive: 786-0 > 100 µM | BT-549 > 100 µM | EKVX > 100 µM | HCC 2998 > 100 µM | K562 > 100 µM | M14 > 100 µM | MDA-MB-435 > 100 µM | MOLT-4 > 100 µM | Malme-3M > 100 µM | OVCAR-5 > 100 µM | OVCAR-8 > 100 µM | PC-3 > 100 µM | SK-MEL-2 > 100 µM | SN12C > 100 µM | TK-10 > 100 µM | U-251 > 100 µM

CSC(=S)NN=C1CCCCC1
inactive: 786-0 37.3 µM | BT-549 45.2 µM | DU-145 27.4 µM | EKVX 22.8 µM | K562 27.4 µM | M14 13.6 µM | MDA-MB-435 18.7 µM | MOLT-4 15.7 µM | Malme-3M 14.6 µM | NCI-H23 29.9 µM | OVCAR-3 22.3 µM | OVCAR-8 8.93 µM | PC-3 30.8 µM | SK-MEL-2 52.6 µM | SN12C 24.4 µM | TK-10 24.9 µM | U-251 29.1 µM

CCOC(=O)C1=C(C)NC(=O)NC1c1ccc(N(CCCl)CCCl)cc1Cl (stereo not drawn)
inactive: 786-0 15.8 µM | BT-549 15.5 µM | DU-145 18.2 µM | EKVX 22.5 µM | K562 12 µM | M14 15.8 µM | MDA-MB-435 19 µM | Malme-3M 14.9 µM | NCI-H23 18.7 µM | OVCAR-3 15.5 µM | OVCAR-5 17.9 µM | OVCAR-8 12.9 µM | PC-3 15.2 µM | SK-MEL-2 16.3 µM | SN12C 16.3 µM | TK-10 18.3 µM | U-251 16.6 µM
